Measured values taken from PMC3592416 (Nucleic Acids Research, 2012).

Assays:
PoTC [1] = target: T1, PoTC (Saccharomyces cerevisiae, UniProt P02406+P0CX27); test: Complete disassembly of PoTC by eEF3/ATP; assay type: biochemical; conditions: for inhibition of eEF3-dependent disassembly reaction: 1 mM antibiotic
translocation = conditions: cited from earlier work
vacant ribosomes = conditions: read-out: Kd with vacant ribosomes; cited from earlier work
eEF3/ribosomes = test: ATP hydrolysis assay; assay type: biochemical, Saccharomyces cerevisiae; conditions: for amount of ATPase inhibited: total ATP hydrolysis 97 pmol
PoTC [2] = target: T1, PoTC; test: Release of mRNA from PoTC; assay type: biochemical; conditions: for effect of Mg2+ on the inhibitory effect (mRNA release): 100 µM antibiotic, various concentrations of MgCl2
PoTC [3] = target: T1, PoTC; conditions: inhibitor alone, without eEF2/GTP; cited from earlier work
yeast ribosomal subunits = test: Induction of subunit association; assay type: biochemical; conditions: 1 mM PAR, 5 s at 30°C after disassembly
PoTC [4] = target: T1, PoTC; conditions: cited from earlier work
[5] = 1 mM antibiotic, 50 µM ATP, 0.5 µM eEF3, 1 min 30°C

T1 sequence (P02406 2-149): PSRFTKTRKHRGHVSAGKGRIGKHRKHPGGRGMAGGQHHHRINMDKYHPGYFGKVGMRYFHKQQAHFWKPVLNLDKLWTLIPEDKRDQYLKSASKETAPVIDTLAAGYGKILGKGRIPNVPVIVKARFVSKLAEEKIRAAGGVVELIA
T1 sequence (P0CX27 2-106): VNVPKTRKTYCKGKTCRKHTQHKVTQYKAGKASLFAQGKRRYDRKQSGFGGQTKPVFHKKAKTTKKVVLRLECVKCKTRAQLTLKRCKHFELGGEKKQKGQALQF
T1 sequence (P16521 2-1044 partner): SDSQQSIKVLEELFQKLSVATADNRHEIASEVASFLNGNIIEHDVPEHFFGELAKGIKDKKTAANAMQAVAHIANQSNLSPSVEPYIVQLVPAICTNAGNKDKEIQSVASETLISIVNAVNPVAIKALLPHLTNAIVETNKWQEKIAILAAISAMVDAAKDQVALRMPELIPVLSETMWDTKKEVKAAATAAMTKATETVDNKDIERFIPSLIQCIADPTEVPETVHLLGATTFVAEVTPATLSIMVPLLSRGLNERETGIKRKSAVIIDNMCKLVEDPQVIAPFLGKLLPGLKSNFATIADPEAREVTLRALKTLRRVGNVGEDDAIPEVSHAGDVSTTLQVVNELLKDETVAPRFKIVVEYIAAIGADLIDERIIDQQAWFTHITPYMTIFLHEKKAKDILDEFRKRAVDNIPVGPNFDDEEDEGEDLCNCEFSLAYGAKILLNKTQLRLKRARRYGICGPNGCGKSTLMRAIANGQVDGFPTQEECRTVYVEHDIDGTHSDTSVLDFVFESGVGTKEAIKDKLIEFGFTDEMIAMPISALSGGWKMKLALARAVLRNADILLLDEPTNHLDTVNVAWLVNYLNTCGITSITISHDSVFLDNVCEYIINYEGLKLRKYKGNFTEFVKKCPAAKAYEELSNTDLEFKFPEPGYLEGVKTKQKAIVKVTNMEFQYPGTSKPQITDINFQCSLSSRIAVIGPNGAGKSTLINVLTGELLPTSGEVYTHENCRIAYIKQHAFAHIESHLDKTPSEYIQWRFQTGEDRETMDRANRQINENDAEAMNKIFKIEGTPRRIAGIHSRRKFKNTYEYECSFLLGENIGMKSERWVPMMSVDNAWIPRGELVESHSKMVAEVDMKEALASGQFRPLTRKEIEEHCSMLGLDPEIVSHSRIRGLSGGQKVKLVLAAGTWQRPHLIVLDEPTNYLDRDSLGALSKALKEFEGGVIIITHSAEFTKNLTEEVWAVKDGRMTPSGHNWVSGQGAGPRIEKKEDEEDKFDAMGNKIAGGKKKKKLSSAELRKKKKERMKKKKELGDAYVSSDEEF

Row | Structure (SMILES) | inhibition of eEF3-dependent disassembly reaction (PoTC [1]) | inhibition of ATP hydrolysis by eEF3/ribosomes (eEF3/ribosomes; [5]) [%] | amount of ATPase inhibited (eEF3/ribosomes; 1 mM antibiotic) [pmol] | effect of Mg2+ on the inhibitory effect (mRNA release) (PoTC [2]) | inhibition of eEF3-dependent release of mRNA from PoTC (PoTC [3]) | further results
1 | C[C@@H]1C[C@@H]([C@H](O)CC2CC(=O)NC(=O)C2)C(=O)[C@@H](C)C1 [CHX, cycloheximide] | almost complete maximum inhibition | ~20 | 22 | remarkable stimulatory effect | – | IC50 (translocation; read-out: IC50 for the inhibition of translocation): 1.2 µM; Kd (vacant ribosomes): 15 µM; mode of inhibition with respect to ATP (PoTC [2]; Lineweaver-Burk, mRNA release): non-competitive inhibitor; mode of inhibition with respect to eEF3 (PoTC [2]; Lineweaver-Burk, mRNA release): non-competitive inhibitor
2 | CC(=O)O[C@H]1C[C@@]2(C)[C@@H](C[C@@H](O)[C@H]3[C@@]4(C)CC[C@@H](O)[C@@H](C)[C@@H]4CC[C@@]32C)/C1=C(\CCC=C(C)C)C(=O)O [FA, fusidic acid] | – | – | – | – | only slightly inhibit | –
3 | C/C(=C\[C@H](C)C(=O)C[C@H](O)CC1CC(=O)NC(=O)C1)[C@@H]1OC(=O)/C=C/CC/C=C/C=C\[C@@H]1C [LTM, lactimidomycin] | – | – | – | – | – | concentration at which maximum inhibition was obtained (PoTC [1]; three disassembly reactions): 100 µM; concentration which inhibits translocation almost completely (translocation): 200 µM
4 | NC[C@@H]1O[C@H](O[C@H]2[C@@H](O)[C@H](O[C@@H]3[C@@H](O)[C@H](N)C[C@H](N)[C@H]3O[C@H]3O[C@H](CO)[C@@H](O)[C@H](O)[C@H]3N)O[C@@H]2CO)[C@H](N)[C@@H](O)[C@@H]1O [PAR, paromomycin] | almost complete maximum inhibition | ~20 | 22 | not significantly influenced | – | association of ribosomal subunits (yeast ribosomal subunits): re-associated yeast ribosomal subunits
5 | CO[C@H]1[C@@H](O)[C@H](O)[C@H](OC[C@@]23C[C@@H]4[C@H](C)CC[C@H]4[C@@]4(C=O)CC2C=C(C(C)C)[C@@]34C(=O)O)O[C@@H]1C [SOR, sordarin] | – | – | – | – | only slightly inhibit | –
6 | [O]=[V]([O-])([O-])[O-] [vanadate] | – | – | – | – | – | effect on the disassembly of PoTC (PoTC [4]): without inhibiting; amount of ATP hydrolysis inhibited (eEF3/ribosomes; vanadate positive control): 52 pmol; inhibition of ATP hydrolysis by eEF3/ribosomes (eEF3/ribosomes; vanadate positive control): about 50%
